PubChem BioAssay AID192 (DTP/NCI, 2004)
Where “and” joins values, the source holds several entries; their conditions need not be identical. Equal entries are not always repeated. Toxic doses and inconclusive results are not listed.

System: BDF1 mice, B16 melanoma ip, median survival T/C
Assay: NCI In Vivo Anticancer Drug Screen. Data for tumor model B16 Melanoma (intraperitoneal) in B6D2F1 (BDF1) mice
Details: endpoint: median survival time, higher = longer survival
Method in brief: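 Compounds were tested in mice carrying transplantable tumors. Survival or tumor size was recorded, and each value is the treated-group measurement (T) divided by that of the vehicle-treated control group (C).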

[1] = dose: 12.5 mg/kg/injection, schedule: Q01DX009 (ip), vehicle: Klucel (hydroxypropylcellulose) (HPC)
[2] = dose: 25.0 mg/kg/injection, schedule: Q01DX009 (ip), vehicle: Klucel (hydroxypropylcellulose) (HPC)
[3] = dose: 50.0 mg/kg/injection, schedule: Q01DX009 (ip), vehicle: Klucel (hydroxypropylcellulose) (HPC)
[4] = dose: 100.0 mg/kg/injection, schedule: Q01DX009 (ip), vehicle: Klucel (hydroxypropylcellulose) (HPC)
[5] = dose: 200.0 mg/kg/injection, schedule: Q01DX009 (ip), vehicle: Klucel (hydroxypropylcellulose) (HPC)

Clc1ccc2c(Cl)ncnc2c1
T/C [1]: 100 % of control
T/C [2]: 100 % of control
T/C [3]: 102 % of control
T/C [4]: 100 % of control
T/C [5]: 90 % of control

C/C=C/c1cc2n(c1)C(=O)c1cc(OC3OC(C)C(NC)C(C)(O)C3O)c(C)c(O)c1NC2O (centres undefined)
T/C (dose: 0.02 mg/kg/injection, schedule: Q04DX003 (ip), vehicle: DMSO): 168 % of control
T/C (dose: 0.5 micrograms/kg/injection, schedule: Q04DX003 (ip), vehicle: saline): 184 % of control
T/C (dose: 1.0 micrograms/kg/injection, schedule: Q04DX003 (ip), vehicle: saline): 184 % of control
T/C (dose: 2.0 micrograms/kg/injection, schedule: Q04DX003 (ip), vehicle: saline): 197 % of control
T/C (dose: 16.0 micrograms/kg/injection, schedule: Q04DX003 (ip), vehicle: saline): 151 % of control

Nc1ncnc2c1c1c(=O)[nH]cnc1n2C1OC(CO)C(O)C1O (centres undefined)
T/C [3]: 86 % of control

COC(=O)Nc1cccc(-c2nc3ccc(NC(=O)OC)cc3c(=O)n2-c2ccccc2)c1
T/C (dose: 8.0 mg/kg/injection, schedule: Q01DX009 (ip), vehicle: Klucel (hydroxypropylcellulose) (HPC)): 107 % of control
T/C (dose: 8.0 mg/kg/injection, schedule: Q01DX009 (ip), vehicle: saline): 112 % of control
T/C (dose: 16.0 mg/kg/injection, schedule: Q01DX009 (ip), vehicle: Klucel (hydroxypropylcellulose) (HPC)): 107 % of control
T/C (dose: 50.0 mg/kg/injection, schedule: Q04DX005 (ip), vehicle: other): 112 % of control
T/C (dose: 50.0 mg/kg/injection, schedule: Q04DX006 (ip), vehicle: saline): 117 % of control
T/C (dose: 64.0 mg/kg/injection, schedule: Q01DX009 (ip), vehicle: saline): 123 % of control
T/C (dose: 100.0 mg/kg/injection, schedule: Q04DX005 (ip), vehicle: other): 120 % of control
T/C (dose: 100.0 mg/kg/injection, schedule: Q04DX005 (oral), vehicle: saline): 99 % of control
T/C (dose: 200.0 mg/kg/injection, schedule: Q04DX005 (oral), vehicle: saline): 97 % of control
T/C (dose: 400.0 mg/kg/injection, schedule: Q04DX005 (oral), vehicle: saline): 114 % of control

Fc1cccc(/C=C2/c3cc(Cl)ccc3-c3c(Cl)cc(Cl)cc32)c1
T/C (dose: 6.25 mg/kg/injection, schedule: Q01DX009 (ip), vehicle: saline with Tween-80): 90 % of control
T/C (dose: 12.5 mg/kg/injection, schedule: Q01DX009 (ip), vehicle: saline with Tween-80): 93 % of control
T/C (dose: 25.0 mg/kg/injection, schedule: Q01DX009 (ip), vehicle: saline with Tween-80): 88 % of control

Cc1cc(N)c2cc(NC(=O)CCCCCCCCC(=O)Nc3ccc4nc(C)cc(N)c4c3)ccc2n1
T/C (dose: 3.12 mg/kg/injection, schedule: Q01DX009 (ip), vehicle: Klucel (hydroxypropylcellulose) (HPC)): 89 % of control
T/C (dose: 6.25 mg/kg/injection, schedule: Q01DX009 (ip), vehicle: Klucel (hydroxypropylcellulose) (HPC)): 87 % of control and 91 % of control
T/C [1]: 100 % of control
T/C [2]: 95 % of control and 107 % of control
T/C [3]: 95 % of control and 99 % of control

CN(C)CCN1C(=O)c2cccc3cc(N)cc(c23)C1=O
T/C (dose: 1.0 mg/kg/injection, schedule: Q01DX009 (ip), vehicle: acid diluted with saline): 99 % of control
T/C (dose: 2.0 mg/kg/injection, schedule: Q01DX009 (ip), vehicle: acid diluted with saline): 110 % of control
T/C (dose: 4.0 mg/kg/injection, schedule: Q01DX009 (ip), vehicle: acid diluted with saline): 114 % of control
T/C (dose: 8.0 mg/kg/injection, schedule: Q01DX009 (ip), vehicle: acid diluted with saline): 122 % of control
T/C (dose: 16.0 mg/kg/injection, schedule: Q01DX009 (ip), vehicle: acid diluted with saline): 155 % of control

COc1cc2c(c(OC)c1OC)-c1ccc(OC)c(=O)cc1[C@@H](NC(=O)CCl)CC2
T/C (dose: 0.25 mg/kg/injection, schedule: Q01DX009 (ip), vehicle: saline with Tween-80): 154 % of control
T/C (dose: 0.5 mg/kg/injection, schedule: Q01DX009 (ip), vehicle: saline with Tween-80): 161 % of control

CCOC(=O)c1ccc(NC(=O)Nc2nc(C)cs2)cc1
T/C (dose: 25.0 mg/kg/injection, schedule: Q01DX009 (ip), vehicle: distilled water + Tween-80): 111 % of control
T/C (dose: 200.0 mg/kg/injection, schedule: Q01DX009 (ip), vehicle: distilled water + Tween-80): 120 % of control

CCN(C(=O)c1cccc(C(=O)N(CC)c2ccccc2C)c1)c1ccccc1C
T/C [3]: 101 % of control
T/C [4]: 98 % of control
T/C [5]: 102 % of control

Cc1ccc2c([N+](=O)[O-])cccc2n1
T/C [2]: 107 % of control
T/C [3]: 93 % of control
T/C [4]: 98 % of control
